Laboratory results as given in paper PMC5011342, “A high throughput drug screening assay to identify compounds that promote oligodendrocyte differentiation using acutely dissociated and purified oligodendrocyte precursor cells” (BMC Research Notes, 2016).
Where two headings read alike, the source gives them in different places.

What was measured:
[1] = test system: acutely dissociated and purified rat OPCs; experiment: Acute OL differentiation assay (MBP expression/cell, immunofluorescent image quantification); format: cell-based
Method in brief: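 This acute differentiation assay used purified rat OPCs from postnatal day 6–7 pups, seeded into PDL/laminin-coated 96-well plates in differentiation medium lacking PDGF and FGF. Compounds were applied in quadruplicate after a 1–2 h preincubation at 37 °C, 10 % CO2, with 0.1 % DMSO negative and 40 ng/ml T3 positive controls in eight wells. After fixation on DIV4, anti-MBP immunofluorescence images yielded MBP expression/cell.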

[2] = test system: expanded OPCs; experiment: cells; settings: for viability at 0.1 µM / viability at 1 µM / viability at 10 µM: Rattus norvegicus, 72 h
Method in brief: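 Toxicity screen: compounds added at 0.1, 1 and 10 µM to PDGF-AA-expanded OPCs in 96-well plates, 3-day incubation at 37 °C, 10% CO2, then alamarBlue 1:10 for 4 h with fluorescence readout. Results set screening doses of 10/2, 2/0.4 or 0.4/0.08 µM.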

[3] = Rattus norvegicus, 2 uM test compound, relative to quetiapine, sheet "All OLga data", read-out: OL differentiation, 2 uM (% Quet)
[4] = Rattus norvegicus, 10 uM test compound, relative to quetiapine, sheet "All OLga data", read-out: OL differentiation, 10 uM (% Quet)
[5] = read-out: 0.1 µM (% DMSO), alamarBlue viability of expanded OPCs, compound at 0.1 µM, sheet All Tox data
[6] = read-out: 1 µM (% DMSO), alamarBlue viability of expanded OPCs, compound at 1 µM, sheet All Tox data
[7] = read-out: 10 µM (% DMSO), alamarBlue viability of expanded OPCs, compound at 10 µM, sheet All Tox data
[8] = Rattus norvegicus, 0.4 uM test compound, relative to quetiapine, sheet "All OLga data", read-out: OL differentiation, 0.4 uM (% Quet)
[9] = read-out: 0.1 µM (% DMSO), alamarBlue viability, NCC library compound at 0.1 µM, sheet "All Tox data"
[10] = read-out: 1 µM (% DMSO), alamarBlue viability, NCC library compound at 1 µM, sheet "All Tox data"
[11] = read-out: 10 µM (% DMSO), alamarBlue viability, NCC library compound at 10 µM, sheet "All Tox data"
[12] = Rattus norvegicus, test compound at 2 uM, NCC library screen, sheet "All OLga data", relative to quetiapine, read-out: 2 uM (% Quet)
[13] = Rattus norvegicus, test compound at 10 uM, NCC library screen, sheet "All OLga data", relative to quetiapine, read-out: 10 uM (% Quet)
[14] = Rattus norvegicus, test compound at 2 uM, MBP expression relative to quetiapine, NCC library screen, sheet "All OLga data", read-out: 2 uM (% Quet)
[15] = Rattus norvegicus, test compound at 10 uM, MBP expression relative to quetiapine, NCC library screen, sheet "All OLga data", read-out: 10 uM (% Quet)
[16] = alamarBlue viability of expanded OPCs, compound at 0.1 µM, relative to DMSO control
[17] = alamarBlue viability of expanded OPCs, compound at 1 µM, relative to DMSO control
[18] = alamarBlue viability of expanded OPCs, compound at 10 µM, relative to DMSO control
[19] = alamarBlue viability, NCC library compound at 0.1 µM, sheet "All Tox data"
[20] = alamarBlue viability, NCC library compound at 1 µM, sheet "All Tox data"
[21] = alamarBlue viability, NCC library compound at 10 µM, sheet "All Tox data"

SMILES: CC(O)(CS(=O)(=O)c1ccc(F)cc1)C(=O)Nc1ccc(C#N)c(C(F)(F)F)c1 (stereo not drawn) [Bicalutamide]
- activation at 2 µM [1, 3]: -3%
- activation at 10 µM [1, 4]: 6.9%
- viability at 0.1 µM [2, 5]: 93.3%
- viability at 1 µM [2, 6]: 96%
- viability at 10 µM [2, 7]: 119%

SMILES: c1ccc(-c2ccc(C(c3ccccc3)n3ccnc3)cc2)cc1 (stereo not drawn) [Bifonazole, reference compound]
- activation at 0.4 µM [1, 8]: 67.3%
- activation at 2 µM [1, 3]: 105%
- EC50 ([1]; Rattus norvegicus, average EC50 for induction of OL differentiation from independent biological replicates, eight concentrations): 1700 nM
- hit in OL differentiation assay, MRF-TMC ([1]; ● = confirmed hit in this paper's assay): ●
- viability at 0.1 µM [2, 9]: 121%
- viability at 1 µM [2, 10]: 187%
- viability at 10 µM [2, 11]: 11.9%

SMILES: O=C1CC2(CCCC2)CC(=O)N1CCNCC1COc2ccccc2O1 (stereo not drawn) [Binospirone]
- activation at 2 µM [1, 12]: 37.7%
- activation at 10 µM [1, 13]: 14.1%
- viability at 0.1 µM [2, 9]: 96%
- viability at 1 µM [2, 10]: 97.6%
- viability at 10 µM [2, 11]: 97.4%

SMILES: CC(C)NCC(O)COc1ccc(COCCOC(C)C)cc1 (stereo not drawn) [Bisoprolol]
- activation at 2 µM [1, 3]: -18.8%
- activation at 10 µM [1, 4]: -17.3%
- viability at 0.1 µM [2, 5]: 91.3%
- viability at 1 µM [2, 6]: 89.8%
- viability at 10 µM [2, 7]: 96.5%

SMILES: Brc1c(NC2=NCCN2)ccc2nccnc12 [Brimonidine]
- activation at 2 µM [1, 14]: 21.9%
- activation at 10 µM [1, 15]: 8.8%
- 0.1 µM (% DMSO) [2, 16]: 91.9 % DMSO
- 1 µM (% DMSO) [2, 17]: 99.2 % DMSO
- 10 µM (% DMSO) [2, 18]: 95.4 % DMSO

SMILES: CN(C)CCC(c1ccc(Br)cc1)c1ccccn1 (stereo not drawn) [Brompheniramine]
- activation at 0.4 µM [1, 8]: -2%
- activation at 2 µM [1, 3]: 0.5%
- viability at 0.1 µM [2, 9]: 95.3%
- viability at 1 µM [2, 10]: 84.4%
- viability at 10 µM [2, 11]: 39.2%

SMILES: COc1cc2c(cc1OC)[C@@]13CCN4CC5=CCO[C@H]6CC(=O)N2[C@H]1[C@H]6[C@H]5C[C@H]43 [Brucine]
- activation at 0.4 µM ([1]; Rattus norvegicus, test compound at 0.4 uM, NCC library screen, sheet "All OLga data", relative to quetiapine, read-out: 0.4 uM (% Quet)): -2.6%
- activation at 2 µM [1, 12]: 11%
- viability at 0.1 µM [2, 9]: 93%
- viability at 1 µM [2, 10]: 79.4%
- viability at 10 µM [2, 11]: 46.6%

SMILES: CCCC1O[C@@H]2C[C@H]3[C@@H]4CCC5=CC(=O)C=C[C@]5(C)[C@H]4[C@@H](O)C[C@]3(C)[C@]2(C(=O)CO)O1 (stereo partly drawn) [Budesonide]
- activation at 2 µM [1, 14]: 20.2%
- activation at 10 µM [1, 15]: -2.2%
- 0.1 µM (% DMSO) [2, 16]: 112.0 % DMSO
- 1 µM (% DMSO) [2, 17]: 115.9 % DMSO
- 10 µM (% DMSO) [2, 18]: 95.7 % DMSO

SMILES: COc1cc(OC)c(C(=O)CCCN2CCCC2)c(OC)c1 [Buflomedil]
- activation at 2 µM [1, 3]: -16.4%
- activation at 10 µM [1, 4]: 24.4%
- viability at 0.1 µM [2, 5]: 105%
- viability at 1 µM [2, 6]: 97.6%
- viability at 10 µM [2, 7]: 124%

SMILES: CCCCNc1cc(C(=O)O)cc(S(N)(=O)=O)c1Oc1ccccc1 [Bumetanide]
- activation at 2 µM [1, 12]: -20.2%
- activation at 10 µM [1, 13]: -11.6%
- 0.1 µM (% DMSO) [2, 16]: 92.3 % DMSO
- 1 µM (% DMSO) [2, 17]: 97.8 % DMSO
- 10 µM (% DMSO) [2, 18]: 92.2 % DMSO

SMILES: CCCCN1CCCCC1C(=O)Nc1c(C)cccc1C (stereo not drawn) [Bupivacaine]
- activation at 2 µM [1, 12]: -1%
- activation at 10 µM [1, 13]: 7%
- viability at 0.1 µM [2, 9]: 79.1%
- viability at 1 µM [2, 10]: 83.4%
- viability at 10 µM [2, 11]: 70.5%

SMILES: CC(NC(C)(C)C)C(=O)c1cccc(Cl)c1 (stereo not drawn) [Bupropion]
- activation at 2 µM [1, 3]: 33.6%
- viability at 0.1 µM [2, 5]: 94.3%
- viability at 1 µM [2, 6]: 98.9%
- viability at 10 µM [2, 7]: 128%

SMILES: O=C1CC2(CCCC2)CC(=O)N1CCCCN1CCN(c2ncccn2)CC1 [Buspirone]
- activation at 2 µM [1, 14]: 11.2%
- activation at 10 µM [1, 15]: 38.1%
- 0.1 µM (% DMSO) [2, 16]: 98.1 % DMSO
- 1 µM (% DMSO) [2, 17]: 95.9 % DMSO
- 10 µM (% DMSO) [2, 18]: 122.3 % DMSO

SMILES: CS(=O)(=O)OCCCCOS(C)(=O)=O [Busulfan]
- activation at 2 µM [1, 12]: 2.3%
- activation at 10 µM [1, 13]: -6.2%
- 0.1 µM (% DMSO) [2, 16]: 93.9 % DMSO
- 1 µM (% DMSO) [2, 17]: 91.8 % DMSO
- 10 µM (% DMSO) [2, 18]: 79.1 % DMSO

SMILES: OC[C@H]1O[C@@H](n2cnc3c(NC4CCCC4)nc(Cl)nc32)[C@H](O)[C@@H]1O [CCPA]
- 2 uM (% Quet) ([1]; test compound at 2 uM, NCC library screen, sheet "All OLga data", relative to quetiapine): -30.5 % Quet
- 10 uM (% Quet) ([1]; test compound at 10 uM, NCC library screen, sheet "All OLga data", relative to quetiapine): -64.0 % Quet
- 0.1 µM (% DMSO) [2, 19]: 87.1 % DMSO
- 1 µM (% DMSO) [2, 20]: 88.1 % DMSO
- 10 µM (% DMSO) [2, 21]: 93.0 % DMSO

SMILES: Nc1nc2ccc(Cl)cc2c2nc(-c3ccco3)nn12 [CGS 15943]
- activation at 2 µM ([1]; Rattus norvegicus, read-out: OL differentiation, 2 uM (% Quet)): -24.4%
- activation at 10 µM ([1]; Rattus norvegicus, read-out: OL differentiation, 10 uM (% Quet)): -126%
- viability at 0.1 µM ([2]; read-out: 0.1 µM (% DMSO)): 81.2%
- viability at 1 µM ([2]; read-out: 1 µM (% DMSO)): 94.8%
- viability at 10 µM ([2]; read-out: 10 µM (% DMSO)): 112%

SMILES: CN1CCN(c2nc3cc(C(F)(F)F)ccc3n3cccc23)CC1.O=C(O)/C=C\C(=O)O.O=C(O)/C=C\C(=O)O [CGS-12066B]
- 0.08 uM (% Quet) ([1]; test compound at 0.08 uM, NCC library screen, sheet "All OLga data", relative to quetiapine): 28.1 % Quet
- 0.4 uM (% Quet) ([1]; test compound at 0.4 uM, NCC library screen, sheet "All OLga data", relative to quetiapine): -50.5 % Quet
- 0.1 µM (% DMSO) [2, 19]: 78.7 % DMSO
- 1 µM (% DMSO) [2, 20]: 44.5 % DMSO
- 10 µM (% DMSO) [2, 21]: 16.9 % DMSO

SMILES: C=C1/C(=C\C=C2/CCC[C@]3(C)[C@@H]([C@H](C)/C=C/[C@@H](O)C4CC4)CC[C@@H]23)C[C@@H](O)C[C@@H]1O [Calcipotriene]
- activation at 0.4 µM [1, 8]: 14.8%
- activation at 2 µM [1, 3]: -7.8%
- viability at 0.1 µM [2, 5]: 98.3%
- viability at 1 µM [2, 6]: 89%
- viability at 10 µM [2, 7]: 11.5%

SMILES: C=C1/C(=C\C=C2/CCC[C@]3(C)[C@@H]([C@H](C)CCCC(C)(C)O)CC[C@@H]23)C[C@@H](O)C[C@@H]1O [Calcitriol]
- activation at 0.4 µM [1, 8]: 8.9%
- activation at 2 µM [1, 3]: 30.3%
- viability at 0.1 µM [2, 9]: 99.4%
- viability at 1 µM [2, 10]: 108%
- viability at 10 µM [2, 11]: 11%

SMILES: C[C@H](CS)C(=O)N1CCC[C@H]1C(=O)O [Captopril]
- activation at 2 µM [1, 12]: 8%
- activation at 10 µM [1, 13]: 8.4%
- viability at 0.1 µM [2, 9]: 90.7%
- viability at 1 µM [2, 10]: 93.2%
- viability at 10 µM [2, 11]: 99.1%

SMILES: NC(=O)N1c2ccccc2C=Cc2ccccc21 [Carbamazepine]
- activation at 2 µM [1, 14]: -5.2%
- activation at 10 µM [1, 15]: -13.7%
- 0.1 µM (% DMSO) [2, 16]: 107.0 % DMSO
- 1 µM (% DMSO) [2, 17]: 99.7 % DMSO
- 10 µM (% DMSO) [2, 18]: 103.7 % DMSO

SMILES: C[C@@](Cc1ccc(O)c(O)c1)(NN)C(=O)O [Carbidopa]
- activation at 2 µM [1, 14]: -35.6%
- activation at 10 µM [1, 15]: -121%
- 0.1 µM (% DMSO) [2, 16]: 108.9 % DMSO
- 1 µM (% DMSO) [2, 17]: 101.2 % DMSO
- 10 µM (% DMSO) [2, 18]: 82.3 % DMSO
